This is an account of results in patent publication US8288438B2, “Methods for avoiding edema in the treatment or prevention of PPARγ-responsive diseases, including cancer” (Metabolex, Inc., priority 2005, dated 2012).

Molecules are shown by their SMILES.

Assay [1] concerns C57BL/6j ob/ob Mice. The assay is described as follows: anti-diabetic activities in the C57BL/6j ob/ob Mice model (Example 20). The class given is in vivo. The conditions noted are these: for Insulin Level compared with vehicle: ob/ob mice, oral gavage; for minimal effective dose: Mus musculus, oral gavage once a day for 1-4 days, plasma glucose 6 hours after dose, read-out: Potency (glucose lowering). The procedure:
(§1) The anti-diabetic activities of the compounds were evaluated in the C57BL/6j ob/ob Mice model.
(§2) Male, 7-9 weeks old, C57BL/6J ob/ob mice were purchased from The Jackson Laboratory (Bar Harbor, Me., USA). Animals were housed (4-5 mice/cage) under standard laboratory conditions at 22±3° C. temperature and 50±20% relative humidity, and were maintained on a diet of Purina rodent chow and water ad libitum. Prior to treatment, blood was collected from the tail vein of each animal. Mice that had non-fasting plasma glucose levels between 250 and 500 mg/dl were used. Each treatment group consisted of 8-10 mice that were distributed so that the mean glucose levels were equivalent in each group at the start of the study. Mice were dosed orally by gavage once a day for 1-4 days with vehicle and one or more dose of test compound at a dose ranging from 5 to 125 mg/kg. compounds were delivered in a liquid formulation containing 5% (v/v) dimethyl sulfoxide (DMSO), 1% (v/v) Tween 80® and 0.9% (w/v) methylcellulose. The gavage volume was 10 ml/kg. Blood samples were taken at 6 hours after the each dose and analyzed for plasma glucose. Food intake and body weight were measured daily. Plasma glucose concentrations were determined colorimetrically using a commercial glucose oxidase method (Sigma Chemical Co, St. Louis, Mo., USA). Significant difference between groups (comparing drug-treated to vehicle-treated) was evaluated using the Student unpaired t-test.

Assay [2] has as its system C57BL/6j ob/ob Mice. The assay is described as follows: anti-diabetic activities in the C57BL/6j ob/ob Mice model (Example 13). Type of assay: in vivo. The following applies: for Insulin Level compared with vehicle: ob/ob mice, oral gavage; for Potency (glucose lowering): oral gavage once a day for 1-4 days, 5 to 125 mg/kg, plasma glucose 6 hours after dose. The method, then:
as §1
as §2, with “80 (and” for “80® and”, “Blood samples were taken at 6 hours after the each dose and analyzed for plasma glucose.” left out, “Plasma glucose concentrations were determined colorimetrically using a commercial glucose oxidase method (Sigma Chemical Co, St.” left out, “t-test. […]” for “t-test.”

As for `O=C(O)C(Oc1ccc(C(F)(F)F)cc1)c1cccc(C(F)(F)F)c1` (racemic) [Compound 39, (4-trifluoromethyl-phenoxy)-(3-trifluoromethyl-phenyl)acetic acid], the “Insulin Level compared with vehicle” value in the assay with C57BL/6j ob/ob Mice [1] is given as “Lower”.
For the compound `O=C(O)C(Oc1ccccc1-c1nc2ccccc2o1)c1ccc(Cl)cc1` (racemic) [Compound I-1], in the assay on C57BL/6j ob/ob Mice [2], the “Insulin Level compared with vehicle” value is recorded as “Lower” and the “Potency (glucose lowering)” value is on record as “++ (effective for glucose lowering at a dose of >25 mg/kg but <125 mg/kg)”.
As to `O=C(O)C(Oc1ccccc1-c1nc2ccccc2o1)c1cccc(C(F)(F)F)c1` (racemic) [Compound I-3], in the assay with C57BL/6j ob/ob Mice [2], the “Insulin Level compared with vehicle” value was “Lower” and the “Potency (glucose lowering)” value is given as “+ (effective for glucose lowering at the dose of ≧125 mg/kg)”.
For `O=C(O)C(Oc1ccc(C(F)(F)F)cc1-c1nc2ccccc2o1)c1cccc(C(F)(F)F)c1` (racemic) [Compound I-89] the same measures were “Lower” and “+++ (effective for glucose lowering at a dose of ≦25 mg/kg)”.
For `O=C(O)C(Oc1ccc(C(F)(F)F)cc1-c1nc2ccccc2o1)c1ccccc1` (racemic) [Compound I-92] the same measures were “Lower” and “+++ (effective for glucose lowering at a dose of ≦25 mg/kg)”.
For `O=C(O)C(Oc1ccc(Cl)cc1-c1nc2ccccc2o1)c1ccc(Cl)cc1` (racemic) [Compound I-190] the same measures were “Lower” and “+++ (effective for glucose lowering at a dose of ≦25 mg/kg)”.
For `O=C(O)C(Oc1ccc(Cl)cc1-c1nc2ccccc2o1)c1cccc(C(F)(F)F)c1` (racemic) [Compound I-191], in the assay with C57BL/6j ob/ob Mice [2], the “Insulin Level compared with vehicle” value was “Lower” and the “Potency (glucose lowering)” value is on record as “+++ (effective for glucose lowering at a dose of ≦25 mg/kg)”.
`COc1ccc(C(Oc2ccc(Cl)cc2-c2nc3ccccc3o2)C(=O)O)cc1` (racemic) [Compound I-193]: in the assay with C57BL/6j ob/ob Mice [2], the “Insulin Level compared with vehicle” value was “Lower” and the “Potency (glucose lowering)” value was “+++ (effective for glucose lowering at a dose of ≦25 mg/kg)”.
Take `O=C(O)C(Oc1ccc(Cl)cc1-c1nc2ccccc2o1)c1cccc(Cl)c1` (racemic) [Compound I-194]: in the assay with C57BL/6j ob/ob Mice [2], the “Insulin Level compared with vehicle” value is “Lower” and the “Potency (glucose lowering)” value is given as “+++ (effective for glucose lowering at a dose of ≦25 mg/kg)”.
For `O=C(O)C(Oc1ccc(C(F)(F)F)cc1-c1nc2ccccc2o1)c1ccc(Cl)cc1` (single isomer, unassigned) [Compound I-372] the same measures were “Lower” and “+++ (effective for glucose lowering at a dose of ≦25 mg/kg)”.
For the compound `O=C(O)C(Oc1ccc(C(F)(F)F)cc1)c1cccc(C(F)(F)F)c1` (single isomer, unassigned; (-)) [(−)-39, (4-trifluoromethyl-phenoxy)-(3-trifluoromethyl-phenyl)acetic acid], in the assay on C57BL/6j ob/ob Mice [1], the minimal effective dose is at most 125 mg/kg and the “Insulin Level compared with vehicle” value is “Lower”.
On to `O=C(O)C(Oc1cc(C(F)(F)F)cc(C(F)(F)F)c1)c1ccc(C(F)(F)F)cc1` (stereo not shown) [Compound 81], for which, in the assay with C57BL/6j ob/ob Mice [1], the minimal effective dose is at most 125 mg/kg and the “Insulin Level compared with vehicle” value is “Lower”.
Regarding `O=C(O)C(Oc1ccc(C(F)(F)F)cc1)c1ccc(C(F)(F)F)cc1` (stereo not shown) [Compound 83], in the assay with C57BL/6j ob/ob Mice [1], the minimal effective dose is at most 125 mg/kg and the “Insulin Level compared with vehicle” value was “Lower”.
Consider `O=C(O)C(Oc1ccc(C(F)(F)F)cc1Cl)c1cccc(C(F)(F)F)c1` (stereo not shown) [Compound 85], for which, in the assay with C57BL/6j ob/ob Mice [1], the minimal effective dose is at most 125 mg/kg and the “Insulin Level compared with vehicle” value was “Lower”.
For the compound `O=C(O)C(Oc1cccc(C(F)(F)F)c1)c1ccc(C(F)(F)F)cc1` (stereo not shown) [Compound 86], in the assay on C57BL/6j ob/ob Mice [1], the minimal effective dose was at most 125 mg/kg and the “Insulin Level compared with vehicle” value is “Lower”.
For `O=C(O)C(Oc1ccc(C(F)(F)F)cc1Cl)c1ccc(C(F)(F)F)cc1` (stereo not shown) [Compound 89] the same measures were at most 125 mg/kg and “Lower”.
The corresponding values for `O=C(O)C(Oc1ccc(C(F)(F)F)cn1)c1cccc(C(F)(F)F)c1` (stereo not shown) [Compound 100, (3-Trifluoromethyl-phenyl)-(5-trifluoromethyl-pyridin-2-yloxy)-acetic acid] are at most 125 mg/kg and “Lower”.
For `CC(Oc1ccc(C(F)(F)F)cc1)(C(=O)O)c1cccc(C(F)(F)F)c1` (stereo not shown) [Compound 120, 2-(4-trifluoromethyl-phenoxy)-2-(3-trifluoromethyl-phenyl)propionic acid] the same measures were at most 125 mg/kg and “Lower”.
Take `CC(Oc1ccc(C(F)(F)F)cc1)(C(=O)O)c1ccc(C(F)(F)F)cc1` (stereo not shown) [Compound 121, 2-(4-Trifluoromethyl-phenoxy)-2-(4-trifluoromethyl-phenyl)-propionic acid]: in the assay on C57BL/6j ob/ob Mice [1], the minimal effective dose was at most 125 mg/kg and the “Insulin Level compared with vehicle” value is “Lower”.
The corresponding values for `OCC(Oc1ccc(C(F)(F)F)cc1)c1ccc(C(F)(F)F)cc1` (stereo not shown) [Compound 128] are at most 125 mg/kg and “Lower”.
As to `CC(=O)NCCOC(=O)C(Oc1ccc(C(F)(F)F)cc1)c1cccc(C(F)(F)F)c1` (stereo not shown) [Compound 136, (4-trifluoromethyl-phenoxy)-(3-trifluoromethyl-phenyl)-acetic acid 2-acetylamino-ethyl ester], in the assay with C57BL/6j ob/ob Mice [1], the minimal effective dose was at most 125 mg/kg and the “Insulin Level compared with vehicle” value was “Lower”.
The corresponding values for `CC(=O)NCCOC(=O)C(Oc1cccc(C(F)(F)F)c1)c1ccc(C(F)(F)F)cc1` (stereo not shown) [Compound 142] are at most 125 mg/kg and “Lower”.
The corresponding values for `CC(=O)NCCOC(=O)C(Oc1cc(C(F)(F)F)cc(C(F)(F)F)c1)c1ccc(C(F)(F)F)cc1` (stereo not shown) [Compound 143] are at most 125 mg/kg and “Lower”.
The corresponding values for `CC(=O)NCCOC(=O)C(Oc1cccc(C(F)(F)F)c1)c1cccc(C(F)(F)F)c1` (stereo not shown) [Compound 144] are at most 125 mg/kg and “Lower”.
In the case of `CC(=O)NCCOC(=O)C(Oc1ccc(C(F)(F)F)cc1)c1ccc(C(F)(F)F)cc1` (stereo not shown) [Compound 145], in the assay with C57BL/6j ob/ob Mice [1], the minimal effective dose was at most 125 mg/kg and the “Insulin Level compared with vehicle” value is recorded as “Lower”.
`CC(=O)NCCOC(=O)C(Oc1ccccc1C(F)(F)F)c1ccc(C(F)(F)F)cc1` (stereo not shown) [Compound 146]: in the assay with C57BL/6j ob/ob Mice [1], the minimal effective dose is over 125 mg/kg and the “Insulin Level compared with vehicle” value is reported as “Lower”.
For `CC(=O)NCCOC(=O)C(Oc1cccc(C(F)(F)F)c1)c1ccccc1C(F)(F)F` (stereo not shown) [Compound 147] the same measures were over 125 mg/kg and “Lower”.
Consider `O=C(O)C(Oc1ccc(C(F)(F)F)cc1-c1nc2ccccc2o1)c1ccccc1` (stereo not shown) [Compound I-369], for which, in the assay on C57BL/6j ob/ob Mice [2], the “Insulin Level compared with vehicle” value was “Lower” and the “Potency (glucose lowering)” value was “+++ (effective for glucose lowering at a dose of ≦25 mg/kg)”.
For `CC(Oc1ccc(C(F)(F)F)cc1-c1nc2ccccc2o1)(C(=O)O)c1ccccc1` (stereo not shown) [Ia-365] the same measures were “Lower” and “+++ (effective for glucose lowering at a dose of ≦25 mg/kg)”.
`CC(Oc1ccc(C(F)(F)F)cc1-c1nc2ccccc2o1)(C(=O)O)c1ccccc1` (stereo not shown) [Ia-366]: the “Insulin Level compared with vehicle” value in the assay with C57BL/6j ob/ob Mice [2] is “Lower”.
